Experiment [1] concerns A431 cells. Kind of experiment: Wound healing assay. Type of experiment: cell-based. The settings on record: 1 nM recombinant human EGF in RPMI medium, positive control. The protocol:
Since biophysical measurements are confounded by the intrinsic diversity of receptor conformations and imaging of moderate binding is difficult, we assessed peptide activity using a cell-based functional assay. Epidermoid tumor cell line A431 depends on EGF signaling for proliferation and migration, which can be assessed by wound healing assays monitoring the closure of a scratch in a cell lawn. A431 cells were grown to a confluent cell monolayer, serum-starved, and scratched. The resulting gap was monitored by microscopy and measured over a 6-h period (Figure 3A). As a positive, control cells were treated with 1 nM recombinant human EGF (hEGF) in RPMI medium. Cell migration in µm/h was calculated from a linear regression of the gap area over time plotted against time (Figure S6). […]
Figure 3 Effect of EGFR-directed peptides in the presence of the natural EGFR-ligand EGF in a wound healing assay with A431 cells. […] The yellow cell borders were detected by image recognition using ImageJ. […] (B) Bar chart presenting the cell migration velocity as determined from microscopy images. […]
Figure S6. […] The gap area over time is analyzed for each sample.
Areas were calculated using ImageJ. Linear regressions were calculated to determine to growth rate. […]

The target of experiment [2] is EGFR. The settings on record: dissociation constant described for EGFR-binding peptide GE11; cited from earlier work.

Consider two substances from publication PMC7765298, “EGFR-Binding Peptides: From Computational Design towards Tumor-Targeting of Adeno-Associated Virus Capsids” (International Journal of Molecular Sciences, 2020).

One may read the Kd as the free concentration of one partner at which half of the binding sites on the other are occupied at equilibrium, for simple one-to-one binding.

“hEGF: recombinant human epidermal growth factor, positive control”: the “increase in cell migration compared to negative control (buffer)” value in experiment [1] is on record as “three-fold increase”.

As for YHWYGYTPQNVI [GE11], the Kd in experiment [2] was 459 µM.
